By TGI is commonly meant the concentration giving total growth inhibition. A high value points to less potent growth arrest. As a reminder, the GI50 is the concentration giving 50% growth inhibition.

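96-well plates; 48 h exposure; 5 concentrations. Endpoints by linear interpolation between flanking doses. Not reached: highest tested concentration assigned. GI50 marks 50% less growth. TGI: concentration producing complete growth inhibition.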

Among the test systems are A498 renal; ACHN renal; COLO 205 colon; HCC-2998 colon; HCT-15 colon; HOP-62 NSCLC; OVCAR-8 ovarian; RXF 393 renal; SK-MEL-2 melanoma; NCI/ADR-RES ovarian.
What all share (assay): DTP human tumour cell line panel, 48 h

Regarding `O=[N+]([O-])c1ccccc1S(=O)(=O)c1ccccc1`, the TGI in the assay on A498 renal, with ACHN renal, with COLO 205 colon, in the assay with HCC-2998 colon, in the assay with HCT-15 colon and in the assay on HOP-62 NSCLC was more than 100 µM each time. Further, the TGI in the assay with OVCAR-8 ovarian, with RXF 393 renal and with SK-MEL-2 melanoma was more than 100 µM each time.
On to `Cc1ccc(NC(=O)C(Cc2c[nH]c3ccccc23)NC(=O)Oc2ccccc2)cc1C` (stereo unspecified), for which the TGI in the assay on A498 renal is 88.4 µM; with ACHN renal, more than 100 µM; in the assay with COLO 205 colon, more than 100 µM; with HCT-15 colon, more than 100 µM; in the assay with HOP-62 NSCLC, more than 100 µM; with NCI/ADR-RES ovarian, more than 100 µM. Further, the TGI in the assay with OVCAR-8 ovarian, in the assay with RXF 393 renal and with SK-MEL-2 melanoma was more than 100 µM throughout.
In the case of `O=S(OC12CC3CC(CC(C3)C1)C2)c1cc(Cl)cc(Cl)c1OCc1ccccc1` (stereo unspecified), the TGI with A498 renal, in the assay on ACHN renal, in the assay with HCC-2998 colon, in the assay on HOP-62 NSCLC, in the assay with RXF 393 renal and in the assay on SK-MEL-2 melanoma was more than 100 µM each time.
Consider `Cc1cn(C2CC(N)C(C(=O)NCC(=O)O)O2)c(=O)[nH]c1=O` (stereo unspecified), for which the TGI in the assay with A498 renal, in the assay on ACHN renal, in the assay on COLO 205 colon, in the assay with HCC-2998 colon, in the assay with HCT-15 colon and in the assay with HOP-62 NSCLC was more than 100 µM in each case. Besides, the TGI in the assay on NCI/ADR-RES ovarian and with RXF 393 renal was more than 100 µM in each case.
`CC1(C)C(=O)c2ccccc2OC1N1CCN(C2Oc3ccccc3C(=O)C2(C)C)CC1` (stereo unspecified): the concentration for total growth inhibition (TGI) in the assay with A498 renal, in the assay on ACHN renal, with COLO 205 colon, with HCC-2998 colon, with HCT-15 colon and in the assay on HOP-62 NSCLC was more than 100 µM in each case. Moreover, the TGI in the assay with NCI/ADR-RES ovarian and in the assay with RXF 393 renal was more than 100 µM each time.
As for `COc1ccc(-c2ccc(-c3ccc(C(=N)N)nc3)s2)cc1Cl`, the GI50 was 1.77 µM in the assay on ACHN renal, 2.6 µM in the assay on OVCAR-8 ovarian and 1.76 µM in the assay on RXF 393 renal. The TGI in the assay with ACHN renal was 3.15 µM; in the assay with OVCAR-8 ovarian it was 7.13 µM; with RXF 393 renal, 3.23 µM.
On to `Nc1ccccc1.[C-]#[O+].[C-]#[O+].[C-]#[O+].[C-]#[O+].[C-]#[O+].[Cr]`, for which the GI50 was 3 µM in the assay on A498 renal; 4.84 µM in the assay on ACHN renal; 3.52 µM with COLO 205 colon; 6.17 µM in the assay on HCC-2998 colon; 4.99 µM in the assay with HCT-15 colon; 4.6 µM in the assay with HOP-62 NSCLC. Besides, the GI50 with NCI/ADR-RES ovarian was 2.76 µM; with OVCAR-8 ovarian, 4.03 µM; with RXF 393 renal it was 3.22 µM; in the assay on SK-MEL-2 melanoma, 3.91 µM. The TGI is 8.28 µM in the assay on A498 renal; more than 10 µM in the assay on ACHN renal; more than 10 µM in the assay on COLO 205 colon; more than 10 µM in the assay with HCC-2998 colon; more than 10 µM in the assay on HCT-15 colon; more than 10 µM with HOP-62 NSCLC. Further, the TGI is 9.79 µM in the assay with NCI/ADR-RES ovarian, more than 10 µM in the assay on OVCAR-8 ovarian, more than 10 µM with RXF 393 renal and more than 10 µM in the assay with SK-MEL-2 melanoma.
As to `COc1cc2oc(=O)cc(C)c2cc1O`, the TGI in the assay with A498 renal, in the assay with ACHN renal, with COLO 205 colon, with HCC-2998 colon, in the assay on HCT-15 colon and in the assay on HOP-62 NSCLC was more than 100 µM each time. The TGI with NCI/ADR-RES ovarian, with OVCAR-8 ovarian, in the assay on RXF 393 renal and with SK-MEL-2 melanoma was more than 100 µM each time.
With `C=CCN1C(=O)/C(=C/c2ccco2)N=C1SC1OC(COC(C)=O)C(OC(C)=O)C(OC(C)=O)C1OC(C)=O` (stereo unspecified), the TGI with A498 renal, in the assay with ACHN renal, in the assay on COLO 205 colon, with HCC-2998 colon, with HCT-15 colon and in the assay on HOP-62 NSCLC was more than 100 µM in each case. Besides, the TGI in the assay on NCI/ADR-RES ovarian, with OVCAR-8 ovarian, in the assay with RXF 393 renal and in the assay with SK-MEL-2 melanoma was more than 100 µM in each case.
